Test results as given in US20190106688A1, “FUSION PROTEIN FOR CRISPR/CAS SYSTEM AND COMPLEX COMPRISING THE SAME AND USES THEREOF” (KOREA INSTITUTE OF SCIENCE AND TECHNOLOGY, priority 2017, published 2019).

System: A549 cells and A549 xenografts
Assay: Immunoblot analysis of EGFR downstream signaling (ERK, AKT) in A549 cells and A549 xenografts
Type: cell-based
Details: in vitro and in vivo samples
Description: The treated cells or tumor tissues were lysed using an RIPA lysis buffer (Sigma) unsupplemented or supplemented with a phosphatase inhibitor+a protease inhibitor (Thermo Scientific). A total of 50 μg of protein was analyzed by immunoblotting via incubation at 4° C. overnight with Sprimary antibody specific to KRAS (Santa Cruz, 1:200 dilution), p-ERK (cell signal, 1:1000 dilution), ERK (Cell Signaling, 1:1000 dilution), and β-Actin (Abcam, 1:10000 dilution) and then incubation with secondary antibodies conjugated with horseradish peroxidase for 2 hours at room temperature. The proteins were visualized by chemicalluminescence using a Western ECL substrate (Bio-Rad) and luminescence images were analyzed by a LAS-3000 (Fujifilm). Band intensities were quantified using ImageJ software.
FIG. 6D illustrates immunoblot analysis of EGFR downstream signaling pathways in A549 cells and A549 xenografts.

SMILES: Cn1cnc2c(F)c(Nc3ccc(Br)cc3Cl)c(C(=O)NOCCO)cc21 [AZD6244]
- activation (phosphorylation) of ERK: inhibited only activation of ERK
